Tests used:
COX-2 / COX-1 = conditions: the smaller the ratio, the more specific for COX-2; cited from earlier work
sEH = molecular target: T1, sEH (Homo sapiens, UniProt P34913); test: inhibition of soluble epoxide hydrolase; type: biochemical
T1 sequence (P34913 1-555): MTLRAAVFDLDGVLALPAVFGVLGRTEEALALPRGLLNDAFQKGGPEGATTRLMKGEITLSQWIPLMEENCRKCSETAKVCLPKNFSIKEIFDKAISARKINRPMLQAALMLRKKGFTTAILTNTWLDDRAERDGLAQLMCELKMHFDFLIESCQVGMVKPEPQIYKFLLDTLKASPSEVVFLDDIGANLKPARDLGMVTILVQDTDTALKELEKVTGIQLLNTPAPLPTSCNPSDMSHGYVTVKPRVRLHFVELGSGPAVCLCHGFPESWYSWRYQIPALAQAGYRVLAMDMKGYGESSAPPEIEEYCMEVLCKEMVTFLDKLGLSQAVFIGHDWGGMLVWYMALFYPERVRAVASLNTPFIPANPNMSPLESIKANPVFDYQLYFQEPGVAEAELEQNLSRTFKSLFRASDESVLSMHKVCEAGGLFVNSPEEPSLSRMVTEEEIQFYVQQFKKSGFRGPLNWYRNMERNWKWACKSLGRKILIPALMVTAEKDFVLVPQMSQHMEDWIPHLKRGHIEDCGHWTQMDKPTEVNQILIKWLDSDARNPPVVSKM
Text: Any of a number of standard assays for determining epoxide hydrolase activity can be used to determine inhibition of sEH. For example, suitable assays are described in Gill, et al., Anal Biochem 131, 273-282 (1983); and Borhan, et al., Analytical Biochemistry 231, 188-200 (1995)). Suitable in vitro assays are described in Zeldin et al., J Biol. Chem. 268:6402-6407 (1993). Suitable in vivo assays are described in Zeldin et al., Arch Biochem Biophys 330:87-96 (1996). […]
The enzyme also can be detected based on the binding of specific ligands to the catalytic site which either immobilize the enzyme or label it with a probe such as dansyl, fluoracein, luciferase, green fluorescent protein or other reagent. […] The enzyme also can be detected based on the generation of fluorescent products following the hydrolysis of the epoxide. […]

metabolic stability = type: in vitro ADME
[1] = tail flick assay, without induction of pain; type: in vivo, mice; conditions: sc in oleic oil, responses after 90 minutes; no induction of pain
Description: Briefly, mice are kept under 12:12 h light: dark cycle and water and food is supplied ad libitum. Mice are trained for three days to the experimental chambers in 30 min sessions each time. The next day baseline readings are taken. Vehicle control (oleic oil) is then injected sc in the next day and measurements are taken. Two days later, animals are injected through the sc route with test compounds dissolved in the oil vehicle and their responses are recorded after 90 minutes.
Tail flick and hind paw withdrawal latency tests are conducted according to D'Amour and Smith, J Pharmacol Exp Ther 72:74-9 (1941), and Woolfe and McDonald, J Pharmacol Exp Ther, 80:300-7 (1944). In tail flick assays, mice are placed in restrainers and left undisturbed for 30 minutes. Readings are then taken by placing the posterior end of the tail onto a tail flick apparatus that has a radiant heat source set to 55 C. Five measurements per animal are taken at two-minute intervals. The latency to move the tail is recorded. In hind paw withdrawal assays, the mice are placed in an experimental chamber with a glass surface. The temperature of this surface is kept constant at 30° C. After a 30-minute period of acclimation, radiant heat is applied to the plantar surface of the hind paw. Five measurements per animal are taken at two-minute intervals. The latency to move the paw is recorded. […]

COX-2 protein = test: Western immunoblot of COX-2 protein in livers of mice; type: in vivo; conditions: liver; LPS 10 mg/Kg i.p.; COX-2 inhibitor 50 mg/Kg or AUDA-BE 20 mg/Kg sc (FIG. 8)
Description: Horizontal axis: treatment administered to the mice. First column: vehicle (oleic acid, administered subcutaneously (“s.c.” or “sc”)). Second column: lipopolysaccharide (“LPS”, 10 mg/Kg i.p.) and vehicle. […] Fifth column: AUDA-BE (20 mg/Kg sc). Sixth column: AUDA-BE (20 mg/Kg sc)+LPS (10 mg/Kg i.p.). […] Vertical axis: depicts percentage of protein induced in test animals receiving designated treatment compared to that of control mice receiving vehicle without LPS.
Western immunoblot analysis was performed with proteins isolated from liver to detect cycloxygenase 2 (COX-2). The isolated proteins were separated by electrophoresis on 10% SDS-PAGE and then transferred onto polyvinylidene fluoride membranes (Immobilon P, Millipore Corp., Bedford, Mass.). […] The membranes were incubated with rabbit anti-mouse HRP-linked IgG (Amersham, Arlington Heights, Ill.) at 1:10,000 dilution, washed, then contacted with secondary antibody and visualized using SuperSignal® West Femto Maximum Sensitivity Substrate (Pierce Biotechnology, Inc., Rockford, Ill.), a chemiluminiscence detection system, per manufacturer's instructions. The immunodetectable bands were quantified by densitometry with Kodak 1.D Image Analysis System v.

[2] = tested on: arachidonic acid metabolites in mouse plasma; test: plasma oxylipin metabolites in mice exposed to LPS (LC-MS/MS); type: in vivo; conditions: AUDA-BE 20 mg/Kg alone

In the case of CC(=O)Oc1ccccc1C(=O)O [Aspirin, aspirin], the “COX-2 (IC50)/COX-1 (IC50) ratio” value (COX-2 / COX-1) is given as 0.32.

For CCCCCCCCCCCCNC(=O)NC12CC3CC(CC(C3)C1)C2 [ADU, N-Adamantyl-N′-dodecyl urea], the “activity as an inhibitor of sEH” value (sEH) was “particularly high activity” and the metabolic stability (metabolic stability) was “metabolically stable”.

For CCCCOC(=O)CCCCCCCCCCCNC(=O)NC12CC3CC(CC(C3)C1)C2 [AUDA-BE, 12-(3-adamantane-1-yl-ureido)-dodecanoic acid butyl ester], the “analgesic effect in tail flick assay” value [1] was “slight but significant analgesic effect”, the “amount of COX-2 relative to control mice” value (COX-2 protein) was “about 4 times” and the “5-HETE, percentage of metabolite compared to control mice receiving vehicle without LPS” value [2] was 262±21%. The “6-keto-PGF1a, percentage of metabolite compared to control mice receiving vehicle without LPS” value [2] was 128±6%, the “PGE2, percentage of metabolite compared to control mice receiving vehicle without LPS” value [2] was 241±2% and the “ΣDHOME, percentage of metabolite compared to control mice receiving vehicle without LPS” value [2] was 141±15%. The “ΣEpOME, percentage of metabolite compared to control mice receiving vehicle without LPS” value [2] was 122±8%.

— patent publication US7951831B2, “Use of inhibitors of soluble epoxide hydrolase to synergize activity of COX and 5-LOX inhibitors” (The Regents of the University of California, priority 2005, dated 2011)
